Laboratory results as given in US20150210984A1, “METHOD FOR R[…] IN VITRO” (priority 2011, published 2015).

Test system: HCV Genotype 3
Test: Patient-derived monocytes fused to hepatocytes, HCV RNA by qPCR
Format: cell-based
Details: fused cells from patients with genotype 3 HCV; 3 to 7 days with telaprevir; FIG. 8
Description: Patient derived monocytes from patients with genotype 1 and genotype 3 HCV were taken and incubated for a variety of different times (ranging from 3 to 7 days) with telaprevir at concentrations known to inhibit HCV RNA. The amount of HCV RNA was assessed using a standard qPCR technique and is expressed as the raw Ct value from the Corbett Rotorgene.
CD14+ monocytes were positively selected from total PBMCs by magnetic cell separation, according to the manufacturer's instructions. The CD14+ cells obtained were counted and pelleted with an equal number of HuH 7.5 cells. The cell pellet was resuspended in pre-warmed polyethylene glycol 1500 (PEG 1500, Roche) over 1 minute then incubated at 37° C. for 2 minutes. […]
RNA was extracted from fused cells immediately after fusion and following a 5 day incubation using TRIzol reagent (Invitrogen). Total RNA obtained was quantified using the RiboGreen assay (Invitrogen). HCV RNA was measured by reverse transcription-quantitative PCR (RT-qPCR) using the Quantitect viral nucleic acid detection kit (Qiagen) in 20 μL volumes with a TaqMan primer and probe for HCV detection (Applied Biosystems). 10-fold serial dilutions of PCR product corresponding to a 319 nucleotide segment between the 5′untranslated region and E1 region of the HCV genome were included as a quantitative standard. […]

`CCC[C@H](NC(=O)[C@@H]1[C@H]2CCC[C@H]2CN1C(=O)[C@@H](NC(=O)[C@@H](NC(=O)c1cnccn1)C1CCCCC1)C(C)(C)C)C(=O)C(=O)NC1CC1` [telaprevir] was tested, and the “replication of HCV (HCV RNA)” value was “not inhibited”.
